Key:
[1] = test system: BTK (217-655) error-prone mutant library; assay: BTK error-prone library screening by FACS in presence of inhibitor; format: cell-based, human
Method: A12 polymerase, an error-prone variant of KOD polymerase, was used for amplification to generate a pool of mutants. Vector was prepared by digestion with XhoI and XbaI. PCR product and digested vector were gel extracted and drop dialyzed in ddH2O on VSWP membranes for one hour. […] Library size was estimated by colony counts from dilution series of transformed cells plated on SD-UT agar plus 100 μg/mL G418. Sanger sequencing was carried out on 15 randomly selected clones, as well as high throughput sequencing (described below) on an aliquot of the entire sample.
3×10^8 cells were washed with TBS+BSA for each library and then stained with anti-His6-FITC and anti-pY-APC for 30 minutes at 4° C. Cells were washed three times to remove unbound antibody.

[2] = test system: ABL kinase error-prone mutant library; assay: ABL error-prone library screening by FACS in presence of inhibitor; format: cell-based, human; settings: inhibitor-treated cultures (25 μM)
Method: 5×10^7 cells were washed with TBS+BSA then stained with anti-His6-FITC and anti-pY-PE for 30 minutes at 4° C. Cells were washed three times to remove unbound antibody. Wild-type ABL with and without inhibitor was used to determine the location of the sorting gates. PE+/FITC+ cells were sorted and re-sorted, then transferred to SD-UT medium for growth at 30° C. until dense, 1-2 days depending on number of cells collected (FIG. 1B).

CC#CC(=O)N1CCC[C@H]1c1nc(-c2ccc(C(=O)Nc3ccccn3)cc2)c2c(N)nccn12 [Acalabrutinib]
fraction of APC-positive cells ([1]; 1000 μM Acalabrutinib treated cultures, pre-sort round 3 pool): 23.8%
fraction of APC-positive cells ([1]; 1000 μM Acalabrutinib treated cultures, unsorted pool): 1.63%

C=CC(=O)N1CCC[C@@H](n2nc(-c3ccc(Oc4ccccc4)cc3)c3c(N)ncnc32)C1 [Ibrutinib]
fraction of APC-positive cells ([1]; 400 nM Ibrutinib-treated cultures, pre-sort round 3): 40.60%
fraction of APC-positive cells ([1]; 400 nM Ibrutinib-treated cultures, unsorted pool): 0.7%

Cc1ccc(C(=O)Nc2ccc(CN3CCN(C)CC3)c(C(F)(F)F)c2)cc1C#Cc1cnc2cccnn12 [Ponatinib]
fraction of PE-positive cells ([2]; pre-sort 4 pool): 57.9%
fraction of PE-positive cells ([2]; unsorted pool): 0.31%

From patent US11236380B2, “Methods for predicting kinase inhibitor resistance” (Research Development Foundation, priority 2017, dated 2022)
